Data on 9 compounds can be found in ChEMBL document CHEMBL5143585, “Discovery and characterization of benzyloxy piperidine based dopamine 4 receptor antagonists” (Bioorg Med Chem Lett, 2022).

Data set [1] can be described thus: Intrinsic clearance in human liver microsomes. Format: ADME, Microsome. The settings on record: read-out: CLH. (Microsomes from liver hold many membrane-bound enzymes, among them those of drug oxidation.)
Data set [2] in a line: Protein binding in mouse plasma assessed as unbound fraction. Format: ADME, cell-free.
For data set [3], the target named is D(2) dopamine receptor (Homo sapiens) (UniProt P14416). Briefly: Displacement of [3H]N-methylspiperone from human D2 receptor expressed in HEK293 cell membrane at 10 uM by competitive inhibition based analysis. Format: cell membranes.
D(2) dopamine receptor (Homo sapiens), sequence (P14416 whole entry): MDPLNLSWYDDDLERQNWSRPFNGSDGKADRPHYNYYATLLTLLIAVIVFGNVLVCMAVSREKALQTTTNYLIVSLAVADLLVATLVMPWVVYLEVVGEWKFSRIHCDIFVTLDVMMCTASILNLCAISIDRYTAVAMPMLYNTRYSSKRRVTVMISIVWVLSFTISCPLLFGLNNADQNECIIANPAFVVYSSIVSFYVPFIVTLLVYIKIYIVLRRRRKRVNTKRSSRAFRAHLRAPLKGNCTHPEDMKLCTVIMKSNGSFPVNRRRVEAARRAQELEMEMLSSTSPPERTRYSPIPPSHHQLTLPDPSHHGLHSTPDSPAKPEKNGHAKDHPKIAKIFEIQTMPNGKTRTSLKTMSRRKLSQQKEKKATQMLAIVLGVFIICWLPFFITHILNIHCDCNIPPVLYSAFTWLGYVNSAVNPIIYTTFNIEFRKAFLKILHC
The next data set concerns the target T1, D(4) dopamine receptor (Homo sapiens, UniProt P21917).
T1 sequence (P21917 whole entry): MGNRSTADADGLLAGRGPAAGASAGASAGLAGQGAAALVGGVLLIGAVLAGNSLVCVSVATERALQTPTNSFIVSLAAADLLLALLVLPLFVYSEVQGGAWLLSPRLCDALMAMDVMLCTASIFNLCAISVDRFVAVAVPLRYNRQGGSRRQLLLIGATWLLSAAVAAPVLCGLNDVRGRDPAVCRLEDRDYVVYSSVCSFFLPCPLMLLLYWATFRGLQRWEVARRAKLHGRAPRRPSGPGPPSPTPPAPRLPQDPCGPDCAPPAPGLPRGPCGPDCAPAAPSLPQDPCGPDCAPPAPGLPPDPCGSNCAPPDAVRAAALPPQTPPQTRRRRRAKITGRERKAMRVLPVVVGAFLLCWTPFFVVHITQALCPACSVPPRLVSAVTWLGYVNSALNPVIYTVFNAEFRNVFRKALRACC
Description: Displacement of [3H]N-methylspiperone from human D4 receptor expressed in HEK293 cell membrane by competitive inhibition based analysis. Format: cell membranes.

Data set [4] is described as follows: Initial plasma concentration in rat at 0.25 mg/kg, iv. It is filed as ADME, organism-based.
In data set [5] the target is T2, D(3) dopamine receptor (Homo sapiens, UniProt P35462). Description: Displacement of [3H]N-methylspiperone from human D3 receptor expressed in HEK293 cell membrane at 10 uM by competitive inhibition based analysis. It is filed as cell membranes.
T2 sequence (P35462 whole entry): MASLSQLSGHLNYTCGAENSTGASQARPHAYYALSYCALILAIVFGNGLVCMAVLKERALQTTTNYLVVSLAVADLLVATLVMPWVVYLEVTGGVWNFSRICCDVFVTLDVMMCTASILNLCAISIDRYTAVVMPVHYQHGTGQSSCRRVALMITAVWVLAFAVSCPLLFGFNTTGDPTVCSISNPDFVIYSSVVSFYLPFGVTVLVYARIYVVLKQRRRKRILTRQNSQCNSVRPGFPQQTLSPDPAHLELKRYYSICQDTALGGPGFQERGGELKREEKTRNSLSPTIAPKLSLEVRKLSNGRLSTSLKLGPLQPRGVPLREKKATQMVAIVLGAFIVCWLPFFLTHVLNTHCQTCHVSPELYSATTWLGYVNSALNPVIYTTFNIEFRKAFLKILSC
The target of data set [6] is T3, D(1B) dopamine receptor (Homo sapiens, UniProt P21918). Description: Displacement of [3H]-SCH23390 from human D5 receptor expressed in HEK293 cell membrane at 10 uM by competitive inhibition based analysis. It is filed as cell membranes. A general note: In a radioligand displacement assay an active substance lowers the binding of a labelled ligand.
T3 sequence (P21918 whole entry): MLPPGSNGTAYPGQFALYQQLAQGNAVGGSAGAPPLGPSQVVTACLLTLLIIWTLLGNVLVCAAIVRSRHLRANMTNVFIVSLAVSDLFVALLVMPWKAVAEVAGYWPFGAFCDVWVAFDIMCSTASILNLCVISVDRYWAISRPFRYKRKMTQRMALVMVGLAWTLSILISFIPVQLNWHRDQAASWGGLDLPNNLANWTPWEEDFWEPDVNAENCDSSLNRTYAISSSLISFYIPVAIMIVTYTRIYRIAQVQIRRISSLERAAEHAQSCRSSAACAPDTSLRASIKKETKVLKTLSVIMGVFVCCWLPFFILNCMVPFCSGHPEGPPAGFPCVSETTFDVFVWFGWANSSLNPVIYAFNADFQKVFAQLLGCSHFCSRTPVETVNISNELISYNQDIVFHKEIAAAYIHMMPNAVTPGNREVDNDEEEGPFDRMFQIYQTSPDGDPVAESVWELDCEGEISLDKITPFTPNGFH
Data set [7] can be described thus: Volume of distribution at steady state in rat at 0.25 mg/kg, iv measured for 24 hrs. The settings on record: in vivo. It is filed as ADME, organism-based.
A short description of data set [8]: AUC in rat at 0.25 mg/kg, iv measured for 24 hrs. It is filed as ADME, organism-based. Set-up: time 24 hrs, dose 0.25 mg/kg, route iv. The settings on record: in vivo.
The nature of data set [9]: Protein binding in human plasma assessed as unbound fraction. Format: ADME, cell-free.
Data set [10] deals with T4, D(1A) dopamine receptor (Homo sapiens, UniProt P21728). Briefly: Displacement of [3H]-SCH23390 from human D1 receptor expressed in HEK293 cell membrane at 10 uM by competitive inhibition based analysis. Format: cell membranes.
T4 sequence (P21728 whole entry): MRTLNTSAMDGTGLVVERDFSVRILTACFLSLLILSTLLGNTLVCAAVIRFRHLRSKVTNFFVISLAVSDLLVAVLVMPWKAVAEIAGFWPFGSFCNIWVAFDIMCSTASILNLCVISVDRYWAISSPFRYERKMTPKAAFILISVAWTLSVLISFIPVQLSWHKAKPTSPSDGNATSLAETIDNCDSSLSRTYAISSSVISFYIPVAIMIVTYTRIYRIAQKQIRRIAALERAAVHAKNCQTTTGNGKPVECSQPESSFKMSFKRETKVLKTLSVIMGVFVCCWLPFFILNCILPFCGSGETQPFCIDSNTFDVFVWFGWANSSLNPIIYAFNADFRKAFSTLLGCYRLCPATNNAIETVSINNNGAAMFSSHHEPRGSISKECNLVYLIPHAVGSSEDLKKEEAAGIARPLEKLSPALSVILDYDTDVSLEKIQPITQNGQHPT
A short description of data set [11]: Ratio of drug level in rat brain to plasma at 0.25 mg/kg, iv measured on day 2 at 0.25 hrs post-dose. It is filed as ADME, organism-based. As to conditions: time 2 day, read-out: BPR.
Data set [12] can be described thus: Half-life in rat at 0.25 mg/kg, iv measured for 24 hrs. Format: ADME, organism-based. The settings on record: in vivo.
Data set [13] can be described thus: Plasma concentration in rat at 0.25 mg/kg, iv measured on day 2 at 0.25 hrs post-dose. The settings on record: time 2 day. It is filed as ADME, organism-based.
The nature of data set [14]: Drug uptake in rat brain at 0.25 mg/kg, iv measured on day 2 at 0.25 hrs post-dose. Format: ADME, organism-based. As to conditions: time 2 day, read-out: Drug uptake.
Data set [15] has as its target T4, D(1A) dopamine receptor. Briefly: Displacement of [3H]-SCH23390 from human D1 receptor expressed in HEK293 cell membrane by competitive inhibition based analysis. Format: cell membranes.
Data set [16] has as its target T5, D(4) dopamine receptor (Homo sapiens) (UniProt P21917).
T5 sequence (whole entry): T1 sequence (P21917 whole entry)
Description: Displacement of [3H]N-methylspiperone from human D4 receptor expressed in HEK293 cell membrane at 10 uM by competitive inhibition based analysis. It is filed as cell membranes.

Data set [17] addresses T3, D(1B) dopamine receptor. Briefly: Displacement of [3H]-SCH23390 from human D5 receptor expressed in HEK293 cell membrane by competitive inhibition based analysis. It is filed as cell membranes.
Data set [18] deals with T2, D(3) dopamine receptor. Briefly: Displacement of [3H]N-methylspiperone from human D3 receptor expressed in HEK293 cell membrane by competitive inhibition based analysis. It is filed as cell membranes.
Data set [19] in a line: Stability of the compound in mouse plasma. It is filed as ADME, cell-free.

`COc1ccc(CN2CCO[C@H](COc3ccccc3)C2)cc1F`: the CLint scaled in [1] turned out to be 71.9 mL/min/kg. Further, the Fu in data set [2] is 3.7%. In data set [3], this compound came in with an inhibition of less than 50%. At D(4) dopamine receptor, this compound gave an IC50 of 5.01 nM and a Ki of 5.8 nM.
As to `Fc1ccc(COC2CCN(Cc3cn4ccccc4n3)CC2)cc1F`, the C0 in data set [4] (in vivo, iv, 0.25 mg/kg) turned out to be 49.4 ng/mL. Further, the inhibition (on D(3) dopamine receptor [5]; on D(1B) dopamine receptor [6]; in [3]; on D(1A) dopamine receptor [10]) was less than 50% in each case. This compound came in with a Vdss in data set [7] of 6.4 L/kg. The figures for the Fu in data set [2] and in data set [9] were 42.8% and 6.2%, respectively. The compound also gave an AUC in data set [8] of 142 ng·h/mL. Besides, the Kp at 48 h in data set [11] stood at 6.6. Besides, the t1/2 in data set [12] amounted to 0.9 h. For the same compound, the concentration at 48 h was determined as 34.9 ng/mL in [13] and 232 ng/g in [14]. On D(4) dopamine receptor, this compound gave an IC50 of 339 nM. At D(4) dopamine receptor, this compound returned a Ki of 337 nM.
As for `FC(F)(F)c1cccc(COC2CCN(Cc3cc4ccc(Cl)cc4[nH]3)CC2)c1`, the Ki at D(1A) dopamine receptor [15] is 1190 nM; on D(4) dopamine receptor, 211 nM. The inhibition at D(3) dopamine receptor [5] was less than 50%; on D(1B) dopamine receptor [6], less than 50%; in data set [3], less than 50%; at D(1A) dopamine receptor [10] (filed as antagonist) it was 55%. The Fu in [2] and in [9] was 0.1% throughout. Moreover, on D(4) dopamine receptor, the IC50 was 209 nM.
In the case of `Cc1cc(CO[C@H]2CCCN(c3ccc(Cl)cc3)C2)ccc1F`, the inhibition on D(3) dopamine receptor [5] is less than 50%; on D(1B) dopamine receptor [6] (filed as antagonist), 66%; in [16], 4.7%; in [3], less than 50%; at D(1A) dopamine receptor [10], less than 50%. In addition, at D(1B) dopamine receptor [17], the Ki is more than 10000 nM.
Turning to `Fc1ccc(COC2CCN(Cc3cc4ccc(Cl)cc4[nH]3)CC2)cc1F`, the C0 in [4] (plasma, read-out: C0) turned out to be 12.6 ng/mL. Also, the inhibition was 73% at D(3) dopamine receptor [5] (filed as antagonist), 64% on D(1B) dopamine receptor [6] (filed as antagonist), less than 50% in data set [3] and less than 50% on D(1A) dopamine receptor [10]. Further, the Fu in [2] is reported as 0.4%; in data set [9], less than 0.3%. In [8], this compound returned an AUC of 126 ng·h/mL. Also, the Ki turned out to be 965 nM at D(3) dopamine receptor [18], 3990 nM at D(1B) dopamine receptor [17] and 149 nM at D(4) dopamine receptor. In addition, in data set [11], the Kp at 48 h came out at 28.9. Besides, the t1/2 in data set [12] stood at 1.8 h. The concentration at 48 h in data set [13] came out at 19.4 ng/mL; in data set [14], 562 ng/g. Further, the IC50 at D(4) dopamine receptor was 148 nM.
In the case of `Cc1cc(NC(=O)CN2CCC(OCc3ccc(F)c(F)c3)CC2)ccc1F`, the inhibition (at D(3) dopamine receptor [5]; on D(1B) dopamine receptor [6]; in data set [3]; at D(1A) dopamine receptor [10]) was less than 50% throughout. The Fu in data set [9] is given as 0.5%. The Stability entry in [19] is listed as “Unstable”. The IC50 on D(4) dopamine receptor was 120 nM. Moreover, affinity on D(4) dopamine receptor was put at a Ki of 121 nM.
In the case of `Fc1cc(COC2CCN(Cc3cn4ccccc4n3)CC2)ccc1Cl`, in data set [4] (in vivo, iv, 0.25 mg/kg), the C0 came out at 52.2 ng/mL. The inhibition on D(3) dopamine receptor [5] is less than 50%; at D(1B) dopamine receptor [6] (filed as antagonist), 57%; in data set [3], less than 50%; on D(1A) dopamine receptor [10], less than 50%. Moreover, the Vdss in [7] came to 5.1 L/kg. Further, the Fu in data set [2] amounted to 22.4%; in data set [9], 1.8%. This compound had an AUC in data set [8] of 125 ng·h/mL. In addition, the Ki at D(1B) dopamine receptor [17] was more than 10000 nM; at D(4) dopamine receptor it was 134 nM. The Kp at 48 h in [11] was found to be 15.5. For the same compound, the t1/2 in data set [12] worked out at 0.6 h. In addition, the figures for the concentration at 48 h in data set [13] and in data set [14] were 29.9 ng/mL and 453 ng/g, respectively. Moreover, on D(4) dopamine receptor, the IC50 is 135 nM.
`Cc1c(Cl)cccc1NC(=O)CN1CCC(OCc2ccc(F)c(F)c2)CC1` showed a C0 in data set [4] (in vivo, iv, 0.25 mg/kg) of 5.5 ng/mL. Also, the inhibition is 67% at D(3) dopamine receptor [5] (filed as antagonist), less than 50% on D(1B) dopamine receptor [6], less than 50% in data set [3] and less than 50% at D(1A) dopamine receptor [10]. Further, the Vdss in [7] is 5.5 L/kg. For the same compound, the Fu in [2] worked out at 1.5%; in data set [9], 0.3%. The compound also came in with an AUC in [8] of 747 ng·h/mL. The Ki on D(3) dopamine receptor [18] was 2460 nM; on D(4) dopamine receptor, 299 nM. Also, the Kp at 48 h in data set [11] was 2.9. Also, the t1/2 in data set [12] amounted to 4.4 h. For the same compound, the figures for the concentration at 48 h in data set [13] and in data set [14] were 45.8 ng/mL and 134 ng/g, respectively. Besides, the IC50 at D(4) dopamine receptor is 302 nM.
For the compound `Cn1ncc2cc(CN3CCC(OCc4ccc(F)c(F)c4)CC3)ccc21`, the C0 in data set [4] (in vivo, iv, 0.25 mg/kg) is 32.5 ng/mL. The inhibition (at D(3) dopamine receptor [5]; at D(1B) dopamine receptor [6]; in data set [3]; on D(1A) dopamine receptor [10]) was less than 50% throughout. The same compound registered a Vdss in data set [7] of 12.9 L/kg. In addition, the Fu was determined as 16.6% in data set [2] and 3.6% in data set [9]. The compound also showed an AUC in data set [8] of 112 ng·h/mL. Besides, the Kp at 48 h in data set [11] was determined as 11.6. The same compound gave a t1/2 in [12] of 1.4 h. Moreover, the figures for the concentration at 48 h in data set [13] and in data set [14] were 30.6 ng/mL and 355 ng/g, respectively. The compound further gave an IC50 on D(4) dopamine receptor of 275 nM. The same compound had a Ki on D(4) dopamine receptor of 276 nM.

In general, inhibition refers to the relative decrease from the control value, in per cent. A higher inhibition goes with strong suppression. Usually IC50 stands for the concentration that inhibits the measured activity by half. A higher IC50 goes with lower potency. What is called Ki is a measure of affinity in units of concentration, obtained from inhibition or displacement. High values mean lower affinity, low ones higher affinity. The term Vdss denotes a proportionality between amount in the body and measured concentration, not a real space. Higher therefore signals extensive tissue distribution. By AUC is commonly meant concentration integrated over time. A low value points to less exposure.
